The term Kd denotes the constant that tells how readily two partners part at equilibrium. Low values mean a tighter complex, high ones a looser complex.

Data on two compounds can be found in article PMC9315041, “Conformationally Constrained Sialyl Analogues as New Potential Binders of h‐CD22” (Chembiochem, 2022).

Structures are written as SMILES.

Assay [1] concerns the target T1, h-CD22 (Siglec-2) (Homo sapiens, UniProt P20273).
T1 sequence (P20273 20-687 limits assumed): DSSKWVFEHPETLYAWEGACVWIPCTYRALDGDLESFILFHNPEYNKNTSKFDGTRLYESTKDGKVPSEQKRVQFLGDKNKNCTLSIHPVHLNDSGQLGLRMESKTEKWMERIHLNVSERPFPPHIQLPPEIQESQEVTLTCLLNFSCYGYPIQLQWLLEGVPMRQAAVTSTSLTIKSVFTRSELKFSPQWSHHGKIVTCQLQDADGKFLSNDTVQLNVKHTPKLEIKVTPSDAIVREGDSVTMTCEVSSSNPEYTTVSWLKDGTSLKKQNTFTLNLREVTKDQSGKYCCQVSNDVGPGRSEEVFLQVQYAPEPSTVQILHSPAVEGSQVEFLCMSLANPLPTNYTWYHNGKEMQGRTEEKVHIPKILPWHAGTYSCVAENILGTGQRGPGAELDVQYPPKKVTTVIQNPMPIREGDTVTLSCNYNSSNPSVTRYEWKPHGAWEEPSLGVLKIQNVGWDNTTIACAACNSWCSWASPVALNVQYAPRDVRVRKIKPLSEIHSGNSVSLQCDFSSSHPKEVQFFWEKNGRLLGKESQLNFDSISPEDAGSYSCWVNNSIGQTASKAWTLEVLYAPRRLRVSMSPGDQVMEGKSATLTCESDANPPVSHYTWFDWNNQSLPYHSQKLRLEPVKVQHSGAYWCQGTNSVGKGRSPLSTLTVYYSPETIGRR
Put plainly: SPR (CD22 immobilized on protein A chip); STD NMR. Type of assay: binding.

For assay [2], the target named is T1, h-CD22 (Siglec-2). Put plainly: intrinsic tryptophan fluorescence titration; STD NMR and tr-NOESY. Type of assay: binding. From the text: intrinsic tryptophan fluorescence titration; STD NMR and tr-NOESY on h-CD22 (Siglec-2) | thus proving the complex formation.

In turn, `CC(=O)N[C@H]1[C@H]([C@H](O)[C@H](O)CNC(=O)c2ccc(-c3ccccc3)cc2)OC(OC[C@H]2O[C@@H]3OC4=C(S[C@@H]3[C@@H](O)[C@H]2O)C(=O)N[C@H](C(=O)O)C4)(C(=O)O)C[C@@H]1O` (some centres unmarked) [compound 2, sialo-derivative 2] returned a Kd at h-CD22 (Siglec-2) [1] of 13.5 ± 2.6 µM. Consider `CC(=O)N[C@H]1[C@H]([C@H](O)[C@H](O)CO)OC(OC[C@H]2O[C@@H]3OC4=C(S[C@@H]3[C@@H](O)[C@H]2O)C(=O)N[C@H](C(=O)O)C4)(C(=O)O)C[C@@H]1O` (some centres unmarked) [compound 1, Sialyl-TnThr analogue], for which the Kd at h-CD22 (Siglec-2) [2] amounted to 2 ± 0.1 µM.
